Among the data in the SangsterLogP compilation are logP and logD values, retold here.

Structures are written as SMILES.

A short description of the first data set: method code SF-RC, from DOI: 10.1002/ps.2780130506.
Settings: not given
The molecule `NC(=O)Nc1ccc(Oc2ccc(Br)cc2)cc1` showed a logP of 3.7. Same read-out and setting: for `CNC(=O)ON=C(C)C` the value was -0.13. Still for that read-out and setting: with `CNC(=O)ON=Cc1ccc(Cl)cc1` the figure was 2.27; with `CNC(=O)O/N=C/c1ccccc1`, 1.49.

Another data set in a line: method code SF-GLC, from Boikov, Yu.; Shibaev, V.; Gaidamaka, V.; V'yunov, K. (1989). Study of correlation between extraction characteristics of glycidyl ethers and theri structure. 62(1)177-179.
Settings: not given
`CCCOCC1CO1` (configuration not stated): the logP is 0.5. `COCC1CO1` (configuration not stated) came in with a logP of 0.03. Same read-out and setting: for `CCCCOCC1CO1` (configuration not stated) the value was 0.55. As for `CC(C)OCC1CO1` (configuration not stated), the logP came to 0.8.

Test in the next data set: not given
Settings: not given
`FCC(F)(Cl)Cl` yielded a logP of 1.51. Regarding `FC(F)(Cl)C(F)(F)Cl`, the logP worked out at 2.66. Still for that read-out and setting: for `FC(F)(F)C(F)(F)Cl` the value was 2.23.

Regarding `FC(F)(Cl)Cl`, the logP was determined as 1.93.

Test in another data set: not given
Settings: not given
This is another data set of the same source.
On to `O=C(O)c1cc(Cl)nc(Cl)c1`, for which the logP was determined as 2.6. On to `O=C(O)c1cc(Br)nc(Br)c1`, for which the logP was 2.8. Still for that read-out and setting: with `O=C(O)c1nc(Cl)ccc1Cl` the figure was 1.06; with `CCOC(=O)c1cc(Cl)nc(Cl)c1`, 3.6.

The next data set is described as follows: method code SF-AS, from DOI: 10.1007/s001289900158, PMID: 8661463.
Settings: not given
For the molecule `O=[N+]([O-])c1c(Cl)ncnc1Cl`, the logP stood at 0.45.

Molecule `Clc1ccc(Cl)nn1` had a logP of 0.93.

Molecule `O=[N+]([O-])c1ccc(Cl)nc1Cl` came in with a logP of 1.96. Same read-out and setting: for `NNc1nc(NN)nc(Nc2ccccc2)n1` the value was 1.07.

The nature of the next data set: method code SF, from DOI: 10.1016/j.jiec.2010.03.003.
Settings: not given
Turning to `CCOC(C)(C)C`, the logP is 1.71. Turning to `CCC(C)(C)OC`, the logP was 1.81. The molecule `CC(C)OC(C)C` had a logP of 1.94.

Molecule `C=COCCC` returned a logP of 2.

A further data set in a line: method code SF-RC, from DOI: 10.1021/jm901332c, PMID: 19921956. To be noted: pH 7.4.
Usually logD stands for the decadic logarithm of the distribution of all forms, ionised or not, between an organic phase and buffer at a given pH. Read a high logD as higher lipophilicity. `Cn1cnc2ncnc(F)c21`: the logD was -0.62. As for `Cn1cnc2c(F)ncnc21`, the logD was determined as 0.11. As to `Cn1cnc2ncnc(Cl)c21`, the logD was 0.03. For `Cn1cnc2ncnc(Br)c21`, the logD is 0.2.

Test in a further data set: not given
Settings: not given
The source holds these as a separate data set.
On to `CCS(=O)(=O)CCn1c([N+](=O)[O-])cnc1C`, for which the logP was -0.38.

`NC(=S)N/N=C\c1ccco1` gave a logP of 1.64.

For `NC(=S)N/N=C/c1ccc([N+](=O)[O-])o1`, the logP worked out at 1.64. In turn, `O=[N+]([O-])c1ccc(/C=N\O)o1` returned a logP of 0.3.

Test in a further data set: not given
Settings: not given
The source holds these as a separate data set.
Turning to `O=[N+]([O-])c1cccc(O)c1`, the logP was 1.88. As for `N#Cc1ccccc1[N+](=O)[O-]`, the logP was 1.16. The same measure, in the same setting: with `Clc1ccccc1` the figure was 2.73; with `N#Cc1ccc([N+](=O)[O-])cc1`, 1.25.

The next data set is described as follows: method code SF-AS, from Ganga, L. X. J. S., & Zun-Yaob, L. H. W. (2009). Determination of lgKow and QSPR Study on Some Fluorobenzene Derivatives. Jiegou Huaxue, 28(10).
Settings: not given
On to `Fc1ccccc1F`, for which the logP was 2.1. `Fc1cc(F)c(F)cc1F` displayed a logP of 2.44. Still for that read-out and setting: with `Oc1ccc(F)cc1F` the figure was 1.9. Turning to `Fc1ccc(F)c(F)c1`, the logP came to 2.34.

A short description of the next data set: method code SF-HPLC, from DOI: 10.1007/bf00269028, PMID: 6488439.
Settings: not given
Regarding `Nc1ccn(C2OC(CCl)C(O)C2O)c(=O)n1` (configuration not stated), the logP was -1.05. Same read-out and setting: for `Nc1cc[nH]c(=O)n1` the value was -1.49; for `Nc1ccn([C@@H]2O[C@@H]3CO[C@H]2[C@@H]3O)c(=O)n1`, -1.64; for `Cc1c[nH]c(=O)[nH]c1=O`, -0.57.

The nature of another data set: method code SF-AS, from PMID: 640322. To be noted: pH 4.0.
The molecule `CC(C)CN(N=O)C(N)=O` returned a logD of 1.04. In turn, `CCCN(N=O)C(N)=O` gave a logD of 0.3. Still for that read-out and setting: with `NC(=O)N(CCCN(N=O)C(N)=O)N=O` the figure was -0.3; with `CCN(N=O)C(N)=O`, -0.15.

A short description of the next data set: method code SF-HPLC, from DOI: 10.1002/jps.2600750520, PMID: 3735094. The conditions noted are these: pH 4.0.
`CCCCOC(=O)n1cc(F)c(=O)[nH]c1=O` gave a logD of 0.89. The molecule `COC(=O)n1cc(F)c(=O)[nH]c1=O` showed a pH-dependent lipophilicity (logD) of -0.68. `CC(C)COC(=O)n1cc(F)c(=O)[nH]c1=O` had a logD of 0.87. Molecule `CCOC(=O)n1cc(F)c(=O)[nH]c1=O` gave a pH-dependent lipophilicity (logD) of -0.17.

A short description of another data set: method code SF, from DOI: 10.1016/s0045-6535(97)00338-x.
Settings: not given
As to `Nc1ccc(F)c(F)c1F`, the logP came to 2.14. Same read-out and setting: for `CC(=O)c1cc(F)c(Cl)cc1Cl` the value was 3.4; for `CC(=O)c1ccc(F)cc1`, 1.74. In the case of `Nc1ccc(F)cc1`, the logP came to 1.18.

The next data set can be described thus: method code SF-AS, from DOI: 10.1211/0022357001777513, PMID: 11186244. To be noted: pH 7.3.
`Oc1cccc(-c2c3nc(c(-c4cccc(O)c4F)c4ccc([nH]4)c(-c4cccc(O)c4F)c4nc(c(-c5cccc(O)c5F)c5ccc2[nH]5)C=C4)C=C3)c1F` yielded a pH-dependent lipophilicity (logD) of 4.6. Same read-out and setting: for `Oc1ccccc1-c1c2nc(c(-c3ccccc3O)c3ccc([nH]3)c(-c3ccccc3O)c3nc(c(-c4ccccc4O)c4ccc1[nH]4)C=C3)C=C2` the value was 4.58. In turn, `OCC(O)COc1c(F)ccc(-c2c3nc(c(-c4ccc(F)c(OCC(O)CO)c4F)c4ccc([nH]4)c(-c4ccc(F)c(OCC(O)CO)c4F)c4nc(c(-c5ccc(F)c(OCC(O)CO)c5F)c5ccc2[nH]5)C=C4)C=C3)c1F` (configuration not stated) yielded a logD of 2.51. With `OCC(O)COc1ccc(-c2c3nc(c(-c4ccc(OCC(O)CO)cc4)c4ccc([nH]4)c(-c4ccc(OCC(O)CO)cc4)c4nc(c(-c5ccc(OCC(O)CO)cc5)c5ccc2[nH]5)C=C4)C=C3)cc1` (configuration not stated), the pH-dependent lipophilicity (logD) amounted to 4.93. As for `OCC(O)COc1ccccc1-c1c2nc(c(-c3ccccc3OCC(O)CO)c3ccc([nH]3)c(-c3ccccc3OCC(O)CO)c3nc(c(-c4ccccc4OCC(O)CO)c4ccc1[nH]4)C=C3)C=C2` (configuration not stated), the logD amounted to 4.67.

Test in another data set: not given
Settings: not given
This is another data set of the same source.
For `OCc1ccccc1I`, the logP was 2.43. With `OCc1ccccc1Br`, the logP was 2.08. The molecule `Fc1cccc(F)c1` had a logP of 2.33.

As for `Nc1c(F)cccc1F`, the logP is 1.61.

Test in another data set: not given
Settings: not given
The source holds these as a separate data set.
`CCCCCC[N+](=O)[O-]`: the logP worked out at 2.7. For the molecule `CC(C)[N+](=O)[O-]`, the logP is 0.8. Turning to `CC(C)C[N+](=O)[O-]`, the logP is 1.4. Same read-out and setting: with `CCC(C)[N+](=O)[O-]` (configuration not stated) the figure was 1.2.

A further data set can be described thus: method code SF, from DOI: 10.1021/js9700917, PMID: 9452977. The conditions noted are these: pH 5.5.
In turn, `NS(=O)(=O)c1ccncn1` had a logD of -0.2. The molecule `CC(=O)Nc1ccc(S(=O)(=O)Nc2cc(C)nc(C)n2)cc1` registered a logD of -0.14. `NC(=S)NS(=O)(=O)c1ccc(N)cc1` yielded a logD of 0.52. In turn, `CC(=O)Nc1ccc(S(=O)(=O)Nc2nc(C)c(C)o2)cc1` yielded a logD of 0.46.

Test in the next data set: not given
Settings: not given
The source holds these as a separate data set.
Molecule `CCN1C=CCC(C(=O)OC2CCC3C4CCc5cc(O)ccc5C4CC23C)=C1` (configuration not stated) had a logP of 4.66. On the same count and under the same terms, with `CC12CC3c4ccc(O)cc4CCC3C1CCC2OC(=O)C1=CN(CCCO)C=CC1` (configuration not stated) the figure was 4.89; with `CCCN1C=CCC(C(=O)OC2CCC3C4CCc5cc(O)ccc5C4CC23C)=C1` (configuration not stated), 4.79.

The molecule `CC12CC3c4ccc(O)cc4CCC3C1CCC2OC(=O)C1=CN(Cc2ccccc2)C=CC1` (configuration not stated) returned a logP of 5.39. In the case of `CCCCCCN1C=CCC(C(=O)OC2CCC3C4CCc5cc(O)ccc5C4CC23C)=C1` (configuration not stated), the logP was found to be 5.07.

Another data set is described as follows: method code SF-HPLC, from DOI: 10.1002/jlac.1995199512305.
Settings: not given
`Cc1cn(C2CC(N=[N+]=[N-])C(COP(=O)(OCC3OC(n4cc(C)c(=O)[nH]c4=O)CC3N=[N+]=[N-])C(O)c3ccccc3)O2)c(=O)[nH]c1=O` (configuration not stated) had a logP of 0.79.

In turn, `Cc1cn(C2CC(N=[N+]=[N-])C(COP(=O)(OCC3OC(n4cc(C)c(=O)[nH]c4=O)CC3N=[N+]=[N-])C(O)c3ccc(C#N)cc3)O2)c(=O)[nH]c1=O` (configuration not stated) returned a logP of 0.49. Turning to `Cc1cn(C2CC(N=[N+]=[N-])C(COP(=O)(OCC3OC(n4cc(C)c(=O)[nH]c4=O)CC3N=[N+]=[N-])C(O)c3ccccc3[N+](=O)[O-])O2)c(=O)[nH]c1=O` (configuration not stated), the logP was 0.79. The molecule `Cc1cn(C2CC(N=[N+]=[N-])C(COP(=O)(OCC3OC(n4cc(C)c(=O)[nH]c4=O)CC3N=[N+]=[N-])C(O)c3c([N+](=O)[O-])cccc3[N+](=O)[O-])O2)c(=O)[nH]c1=O` (configuration not stated) showed a logP of 0.73.

With `Cc1cn(C2CC(N=[N+]=[N-])C(COP(=O)(OCC3OC(n4cc(C)c(=O)[nH]c4=O)CC3N=[N+]=[N-])C(O)c3cccc([N+](=O)[O-])c3)O2)c(=O)[nH]c1=O` (configuration not stated), the logP amounted to 0.79.

A short description of a further data set: method code SF-GLC, from DOI: 10.1007/bf00343116, PMID: 4026577.
Settings: not given
Molecule `N#CCCCCCCCCC#N` displayed a logP of 1.75. On the same count and under the same terms, for `N#CCCCCC#N` the value was -0.32; for `N#CCCCC#N`, -0.72. In turn, `N#CCCC#N` displayed a logP of -0.99.
